Reference: patent US6630498B2 (SmithKline Beecham Corporation, priority 1997, dated 2003)

Legend:
[1] = Mucosal to serosal permeability through rabbit colon in vitro; assay type: in vitro ADME
[2] = cited from earlier work
[3] = Flow through dissolution of granules with pH gradient; assay type: physicochemical; details: for in vitro dissolution profile (in words): compared to the monomethanesulfonate salt (granules); for Percent of Eprosartan dissolved from the granules: flow through 8 mL/min, 37° C.
Procedure: A flow through dissolution apparatus at 8 mL/min flow rate, 37° C. and the following pH gradient

Row | Compound | increase of mucosal to serosal permeability through rabbit colon ([1]; in the presence of L-arginine as a solution, compared to the monomethanesulfonate alone) | bioavailability (in words) ([2]; human) | mean absolute bioavailability ([2]; human) | time to maximum concentration ([2]; human, fed state) | safety and tolerability in human clinical studies ([2]; up to doses of 800 mg per day) | in vitro dissolution profile (in words) [3] | in vitro dissolution profile (in words) ([3]; listed as arginine charge-neutralization-complex) | Percent of Eprosartan dissolved from the granules ([3]; time 0 min, pH gradient) | Percent of Eprosartan dissolved from the granules ([3]; time 45 min (pH 1.2 SGF step)) | Percent of Eprosartan dissolved from the granules ([3]; time 90 min (pH 3.0 step)) | Percent of Eprosartan dissolved from the granules ([3]; time 120 min (pH 4.0 step)) | Percent of Eprosartan dissolved from the granules ([3]; time 150 min (pH 5.0 step)) | Percent of Eprosartan dissolved from the granules ([3]; time 180 min (pH 6.0 step)) | Percent of Eprosartan dissolved from the granules ([3]; time 225 min (pH 7.5 step)) | in vitro permeability through rabbit colon (in words) ([1]; compared to the monomethanesulfonate salt)
1 | CCCCc1ncc(/C=C(\Cc2cccs2)C(=O)O)n1Cc1ccc(C(=O)O)cc1 [(E)-α-[2-n-Butyl-1-[(4-carboxyphenyl)methyl]-1H-imidazol-5-yl]methylene-2-thiophenepropionic acid monomethanesulfonate] | 50% | low and variable bioavailability | approximately 13% | 2.5 to 4 h | safe and well tolerated | – | – | – | – | – | – | – | – | – | –
2 | CCCCc1ncc(/C=C(\Cc2cccs2)C(=O)O)n1Cc1ccc(C(=O)O)cc1.N=C(N)NCCC[C@H](N)C(=O)O [Arginyl charge-neutralization-complex, (E)-α-[2-n-butyl-1-[(4-carboxyphenyl)methyl]-1H-imidazol-5-yl]methylene-2-thiophenepropionic acid arginyl charge-neutralization-complex] | – | – | – | – | – | improved in vitro dissolution profile | better dissolution profile | 0.00% | 32.81% | 35.82% | 36.24% | 37.44% | 46.70% | 100.63% | increased in vitro permeability
